Reference: patent publication US12643899B2, “Antiviral agents, uses thereof and methods for their preparation” (The University of British Columbia, priority 2020, dated 2026)

Experiments:
[1] = MTS cytotoxicity assay in U87 MG cells; type: cell-based; settings: human, U87 MG cells (human brain)
Protocol: An MTS assay was performed to determine the cytotoxicity concentration 50% (CC50) of cladoniamide A (CA) in human A549 cells, a cell line from human lung carcinoma. Various concentrations of CA were added to cultured A549 cells and incubated (37° C., 5% CO2) for 48 h. Cell viability was then measured by an MTS assay kit (CellTiter 96™ Aqueous One Solution cell proliferation assay, Promega) according to the manufacturer's instructions. Curve fitting was performed in Igor Pro (WaveMetrics) using a hyperbolic fit algorithm (FIG. 1). The CC50 of CA in A549 cells was determined to be 54±5 μM. An MTS assay was also performed to determine the CC50 of CA in human U87 MG cells, a cell line from human brain. Various concentrations of CA were added to cultured U87 MG cells and incubated (37° C., 5% CO2) for 48 h. Cell viability was then measured by an MTS assay kit (CellTiter 96 Aqueous One Solution cell proliferation assay, Promega) according to the manufacturer's instructions. Curve fitting was performed in Igor Pro (WaveMetrics) using a hyperbolic fit algorithm (FIG. 2).

[2] = tested on: ZIKV; assay: Time-of-addition study of ZIKV infection in A549 cells (plaque assay); type: cell-based, Zika virus; settings: 250 nM CA; full lifecycle, pre-replication, post-replication; A549, MOI 1.0
Protocol: Error bars represent SEM among 3 biological replicates. Significance was calculated by a 2-tailed unpaired Student's t-test. *, p<0.05.
Cultured A549 cells were inoculated with ZIKV for 1 h at MOI 1.0, and maintained for 2 d under different experimental conditions. For “Full lifecycle” 250 nM CA was added following the inoculation and maintained in the medium for 2 d; for “Pre-replication” 250 nM CA was added following the inoculation and maintained in the medium for 6 h, after which the cells were washed with PBS and the medium was changed; and for “Post-replication” 250 nM CA was added to the culture medium 12 hours post infection (hpi) and maintained until 24 hpi, after which the cells were washed with PBS and the medium was changed.

[3] = tested on: DENV-2; assay: DENV-2 intracellular dsRNA (Cellomics) in A549 cells; type: cell-based, dengue virus
Protocol: (§1) Error bars represent SD among 3 biological replicates. Cultured A549 cells were treated with the indicated concentrations of CA (1=Mock, 2=0 M, 3=1 μM, 4=5 M, 5=10 M, 6=20 µM) or PF-429242 (7=15 M) for 1 h before being washed with PBS and infected with DENV-2, DENV-3, or DENV-4 at MOI 1.0 for 48 h. Cells were labeled for viral dsRNA with […] then imaged and quantified using the Cellomics ArrayScan™ VTI High Content Screening system.
(§2) Viruses. ZIKV: ZIKV strain PRVABC59 (Puerto Rico/2015) (ATCC #VR-1843) was used in these studies, specifically three separate stocks generated in Vero E6 cells with titres of 1.35×10^8 pfu/mL, 1.0×10^7 pfu/mL, and 2.9×10^6 pfu/mL respectively. DENV strains: DENV-2 strain NGC, DENV-3 strain H-87, and DENV-4 strain H-241 were kindly provided by National Microbiology Laboratory, Winnipeg, MB, Canada.
(§3) A549 cells were seeded onto Corning tissue culture treated 96 well plates and incubated at 37 degrees Celsius and 5% CO2 for 24 h. CA was diluted in MEM complete media to concentrations of 1 μM, 5 μM, 10 μM, 20 μM, including a 0 μM condition. Diluted CA was added to each well and cells were incubated at 37 degrees Celsius and 5% CO2 for 1 h. After 1 h, cells were washed once with PBS to remove CA and were then infected with DENV-2, -3 or -4 at an MOI of 1. […] Labeled 96 well plates were imaged and quantified using the Cellomics ArrayScan VTI. […]

[4] = tested on: DENV-4; assay: DENV-4 intracellular dsRNA (Cellomics) in A549 cells; type: cell-based, dengue virus
Protocol: as §1, §2, §3

[5] = tested on: DENV-2, DENV-3, DENV-4; assay: DENV-2, -3, -4 dsRNA imaging in Huh7.5.1 and U87 cells; type: cell-based, dengue virus; settings: Huh 7.5.1 cells and U87 cells, FIG. 9
Protocol: Cultured Huh7.5.1 cells (left plots) or U87 cells (right plots) were treated with the indicated concentrations of CA (1=Mock, 2=0 M, 3=1 M, 4=5 M, 5=10 M, 6=20 µM) or PF-429242 (7=15 M) for 1 h before being washed with PBS and infected with DENV-2, DENV-3, or DENV-4 at MOI 1.0 for 48 h. Cells were labeled for viral dsRNA with […] then imaged and quantified using the Cellomics ArrayScan™ VTI.

[6] = target: T1, V-ATPase (Homo sapiens, UniProt P27449); assay: Acridine orange vital staining of intracellular organelles of A549 cells (V-ATPase inhibition); type: cell-based; settings: CA 250 nM, 6 h
T1 construct: endogenous in cells; host or cells: A549 cells (ATCC #CCL-185, or acquired from Synthego)
T1 sequence (P27449 whole entry, looked up): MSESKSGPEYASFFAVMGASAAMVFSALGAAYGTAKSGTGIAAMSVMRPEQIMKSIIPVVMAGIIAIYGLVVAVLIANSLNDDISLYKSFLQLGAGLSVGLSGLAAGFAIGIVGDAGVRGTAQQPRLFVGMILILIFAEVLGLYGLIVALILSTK
Protocol: Cultured A549 cells were treated with 1 μM CD, or 250 nM CA or the V-ATPase specific inhibitor bafilomycin A1 (100 nm) for 6 h. After removing the culture medium and washing the cells with Hanks' balanced salt solution (HBSS), a 1:4000 dilution of acridine orange (2% solution, Polysciences Inc.) in HBSS was added to cells and incubated for 10 min. Cells were then washed again with HBSS and analyzed by fluorescence microscopy. In color images, a red color corresponds to the protonated version of the molecule, which permeates acidic organelles and becomes sequestered following protonation. One representative of 3 biological replicates is shown.

[7] = tested on: brain organoids; assay: CellTiter Glo 3D cell viability assay in brain organoids; type: cell-based; settings: 1 μM
Protocol: FIG. 19 is a plot showing toxicity results for brain organoids treated with 1 μM CA.
FIG. 18 is a plot showing the anti-ZIKV activity of cladoniamide A (incubation with 1 μM CA for 72 hours; 2 biological replicates, each with 4 organoids/well) using four brain organoid systems. There was a greater than 4-log reduction in extracellular ZIKV titer when treated with CA. […] FIGS. 20 and 21 show plots showing the anti-ZIKV activity of CA and CC (incubation with 10 μM CA or CC for 69 hours, MOI 1; 4 technical replicates as there were 4 organoids/[…]).

COc1c2n(c3ccccc13)[C@]1(O)C(=O)N(C)C(=O)[C@]1(O)c1c-2[nH]c2ccc(Cl)cc12 [CA, (11S,15R)-7-chloro-11,15-dihydroxy-23-methoxy-13-methyl-3,13,16-triazahexacyclo[14.7.0.0^2,10.0^4,9.0^11,15.0^17,22]tricosa-1(23),2(10),4(9),5,7,17,19,21-octaene-12,14-dione]
CC50 at 48 h [1]: 42 ± 12 µM | step of ZIKV infection inhibited [2]: dual inhibitor of ZIKV infection targeting the entry and maturation steps | activity against Dengue virus 2 in vitro ([3]; 1-20 μM, FIG. 8 upper plots): good activity | IC50 ([3]; Dengue virus, DENV2, DENV-2, intracellular dsRNA (Cellomics)): 2.3 µM | activity against Dengue virus 4 in vitro ([4]; 1-20 μM, FIG. 8 lower plots): good activity | IC50 ([4]; Dengue virus, DENV4, DENV-4, intracellular dsRNA (Cellomics)): 3.2 µM | activity against Dengue virus 2, 3 and 4 [5]: broad-spectrum anti-flaviviral activity | vital staining with acridine orange of intracellular organelles [6]: inhibited vital staining | toxicity to brain organoids [7]: not toxic
